Assay results published in PMC11537802, “The Neuroprotection of 1,2,4‐Triazole Derivative by Inhibiting Inflammation and Protecting BBB Integrity in Acute Ischemic Stroke” (CNS Neuroscience & Therapeutics, 2024).

Legend:
MCAO rats [1] = assay: neurological score (Zea-Longa) in MCAO rats; format: in vivo, Sprague–Dawley rats; settings: 48 h after surgery
Text: (§1) C57BL/6 mice were randomly assigned to treatment groups by body weight. Operator blind to treatment status of animals. After the mice were anesthetized, a midline cervical incision was made. The left common carotid artery and external carotid artery were isolated and ligated. Arterial clamps were placed at the preparation line and distal end of the internal carotid artery. An incision was made at the bifurcation of the common carotid artery. 4–0 nylon line was inserted to a depth of 17–20 mm. The nylon line entered the internal carotid artery; then, it entered the skull to the anterior cerebral artery and blocked all blood flow sources in the middle cerebral artery. After keeping ischemic for 1 h, the animals were re‐anesthetized and then pulled out the nylon line for about 1 cm to achieve reperfusion for up to 48 h. The wound was disinfected with iodophor, and the skin was sutured. Put them on the electric blanket to maintain the body temperature after the completion of surgery; then, they were returned to cages upon recovery. For the sham group, except that no nylon line is inserted, other steps are the same as above. Sham group and model group were given 20% polyoxyethylene castor oil. Subsequently, the animals were sacrificed, and the serum and brains were collected for a series of subsequent analyses and studies.
Rats were randomly divided into five groups: Sham group (n = 24), rats received sham operation; MCAO model group (n = 30); SYS18 low‐dose group (7.5 mg/kg, n = 30); SYS18 high‐dose group (15 mg/kg, n = 30); and Positive control group rats were intraperitoneally injected with edaravone (15 mg/kg, n = 30). […]
According to Zea‐Longa 4‐point scoring criteria, the animals were scored for neurological function at 48 h after surgery. […] And the degree of each animal model was scored as follows: 0 point, no symptoms of nerve injury; 1 point, inability to fully extend the forepaw; 2 points, circling laterally; 3 points, tip to the opposite side; 4 points, inability to walk spontaneously and loss of consciousness. […]

IL‐1β = assay: serum IL-1β in MCAO rats (ELISA); format: in vivo, Sprague–Dawley rats; settings: 15 mg/kg, 48 h, p < 0.05
Protocol: (§2) Rats were randomly divided into five groups: Sham group (n = 24), rats received sham operation; MCAO model group (n = 30); SYS18 low‐dose group (7.5 mg/kg, n = 30); SYS18 high‐dose group (15 mg/kg, n = 30); and Positive control group rats were intraperitoneally injected with edaravone (15 mg/kg, n = 30). The tested compound was dissolved in 20% polyoxyethylene castor oil and was administered 0.5 h before operation and 6, 12, 24, and 36 h after reperfusion. The measurements were carried out 48 h after the operation. Ten animals in each group were used to measure brain water content, and 10 animals in each group were used to detect Evans blue content in brain tissue. Ten animals in each group were used for determination of biochemical indicators and pathological observations and WB experiments.
Blood sample was collected at 48 h after MCAO. After centrifugation at 4°C × 12,000 g for 10 min, the clear supernatant was stored at −80°C. The components of SOD, MDA, TNF‐α, and IL‐1β in the blood samples were measured according to the instructions of the assay kits.

MCAO rats [2] = assay: hematoxylin and eosin staining of brain tissue in MCAO rats; format: in vivo, Sprague–Dawley rats; settings: high-dose SYS18 (15 mg/kg), 48 h ischemia–reperfusion
Protocol: as §2
Hematoxylin and eosin staining were used to observe the effect of SYS18 on pathological changes in ischemia–reperfusion brain tissue. After 48 h of ischemia–reperfusion, the rats were sacrificed, and the brains were immediately fixed with 4% paraformaldehyde after transcranial perfusion with ice‐cold saline (The damaged brain is located in the ischemic penumbra of the right brain. Through HE staining and pathological sectioning under a microscope, the area where neuronal cells are morphologically intact and have not yet degenerated or necrotic is determined as the ischemic penumbra). […]

MMP‐9 = assay: immunofluorescence of MMP-9 in brain of MCAO rats; format: in vivo, Sprague–Dawley rats; settings: high-dose SYS18 (15 mg/kg)
Protocol: as §2
Immunofluorescence testing selects the same area as HE staining to observe and analyze the fluorescence level in the field of view. After deparaffinization of the paraffin sections to water, the tissue sections were subjected to antigen retrieval in a microwave oven in a retrieval box filled with citric acid antigen retrieval buffer (pH 6.0), and the sections were incubated overnight at 4°C with rabbit monoclonal anti‐MMP‐9 (1:100), rabbit polyclonal anti‐claudin‐5 (1:200). […]

MCAO rats [3] = assay: blood–brain barrier permeability (Evans blue content in brain) in MCAO rats; format: in vivo, Sprague–Dawley rats; settings: 48 h
Protocol: as §2
The integrity of the BBB was investigated using Evans blue (EB). Forty‐six hours after reperfusion, rats were injected with EB (4% saline, 4 mL/kg) via the tail vein. Two hours later, rats were anesthetized and perfused with saline through the left ventricle until colorless perfusate. After hydrangea and brainstem were removed, the brains were collected and homogenized. Evans blue was extracted from the brain with N,N‐dimethylformamide. After centrifugation at 3700 rpm for 15 min, the absorbance of supernatant was detected at 620 nm wavelength.

MCAO mice = assay: brain edema volume by T2-weighted MRI in MCAO mice; format: in vivo, C57BL/6 mice; settings: SYS18 30 mg/kg twice a day, about 48 h after MCAO, model 36.64% ± 2.69%, p < 0.0001
Text: as §1
Serial brain images were acquired approximately 48 h after MCAO. […]

**Q.** For `COc1ccc(-c2nc(-c3ccccc3O)n(-c3ccc(S(N)(=O)=O)cc3)n2)c(O)c1` [SYS18, 4‐(3‐(2‐hydroxy‐4‐methoxyphenyl)‐5‐(2‐hydroxyphenyl)‐1H‐1,2,4‐triazol‐1‐yl) benzenesulfonamide], which neurological score (MCAO rats [1]; 7.5 mg/kg (low dose), model 2.42 ± 0.84, p > 0.05) is on record?
**A.** 1.95 ± 0.74

**Q.** And the neurological score (MCAO rats [1]; 15 mg/kg (SYS18 high dose; edaravone i.p.), model 2.42 ± 0.84, p < 0.01)?
**A.** 1.52 ± 0.68

**Q.** What about the “IL-1β in serum vs model group” value (IL‐1β) of the same molecule?
**A.** significantly decreased

**Q.** And the “histological damage of nerve cells in cerebral cortex (HE staining)” value (MCAO rats [2])?
**A.** the necrosis of nerve cell in the brain tissue was attenuated

**Q.** What about the “fluorescent intensity of MMP-9 vs model group” value (MMP‐9) of the same molecule?
**A.** decreased

**Q.** And the “Evans blue content in brain tissue” value (MCAO rats [3]; 7.5 mg/kg (low dose), p > 0.05 vs model)?
**A.** 7.06 ± 1.58 µg/g

**Q.** And the “Evans blue content in brain tissue” value (MCAO rats [3]; 15 mg/kg (SYS18 high dose; or edaravone positive control))?
**A.** 5.74 ± 0.54 µg/g

**Q.** And the “brain edema volume (T2-MRI)” value (MCAO mice)?
**A.** 11.01% ± 5.32%
